The text below walks through data of ChEMBL document CHEMBL1201862, “PubChem BioAssay data set” (2004).

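All cell lines were grown in 96-well plates and treated with compound for 48 hours. GI50: concentration for 50% inhibition of growth.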 Active and inactive are the calls of the source. No stated cut-off is given here; in the data, active = GI50 up to about 1.1 µM and inactive = higher. A value given as a limit tells only on which side of the number the result lay.

Some test systems named below: 786-0; A549; ACHN; CAKI-1; HCC 2998; HCT-116; HCT-15; HL-60; IGROV-1; K562; M14; MDA-MB-231; NCI/ADR-RES; OVCAR-4; OVCAR-8; RXF 393; SF-268; SK-MEL-5; SK-OV-3; UACC-62.
What all share (assay): growth of human tumour cells (NCI), 48 h

For `CC1CCN(CC(=O)N2c3ccccc3Sc3cc4ccccc4cc32)CC1`, the GI50 in the test with 786-0 was > 100 µM (inactive); in the test with A549 it was > 100 µM (inactive); in the test with ACHN, > 100 µM (inactive); in the test with CAKI-1 it was > 100 µM (inactive); in the test on HCC 2998, 67.6 µM (inactive); in the test on HCT-116 it was 49.7 µM (inactive). Besides, the GI50 in the test on HCT-15 was greater than 100 µM; with HL-60, 24.7 µM (inactive); with IGROV-1, > 100 µM (inactive); with K562 it was > 100 µM (inactive); in the test with M14, > 100 µM (inactive); with MDA-MB-231 it was > 100 µM (inactive). Besides, the GI50 with NCI/ADR-RES, in the test on OVCAR-4, with OVCAR-8, with RXF 393, in the test with SF-268 and in the test on SK-MEL-5 was > 100 µM (inactive) throughout. Besides, the GI50 in the test with SK-OV-3 and in the test with UACC-62 was > 100 µM (inactive) throughout.

Consider `COc1ccc(/C=C/C=C2C(=O)NC(=S)NC2=O)cc1`, for which the GI50 is 2.35 µM (inactive) with 786-0; 20.3 µM (inactive) in the test with A549; 5.08 µM (inactive) in the test with ACHN; 9.95 µM (inactive) with CAKI-1; 8.15 µM (inactive) in the test with HCC 2998; 4.7 µM (inactive) in the test on HCT-116. Moreover, the GI50 in the test on HCT-15 is 3.64 µM; with HL-60 it was 0.805 µM (active); in the test with IGROV-1 it was 3.91 µM (inactive); with K562, 2.21 µM (inactive); with M14, 10.1 µM (inactive); with MDA-MB-231, 2.11 µM (inactive). Besides, the GI50 was 3.3 µM (inactive) in the test on NCI/ADR-RES; 31.2 µM (inactive) in the test on OVCAR-4; 4.03 µM (inactive) in the test on OVCAR-8; 4.35 µM (inactive) in the test on RXF 393; 4.68 µM (inactive) in the test on SF-268; 13.3 µM (inactive) in the test on SK-MEL-5. Besides, the figures for the GI50 with SK-OV-3 and with UACC-62 were 17.7 µM (inactive) and 3.07 µM (inactive), respectively.

For `CCCNC(=S)N/N=C1\C(=O)Nc2ccccc21`, the GI50 in the test on 786-0, with A549, in the test with ACHN, in the test with CAKI-1, in the test with HCC 2998 and with HCT-116 was > 100 µM (inactive) throughout. In addition, the GI50 with HCT-15 is greater than 100 µM; with HL-60, > 100 µM (inactive); with IGROV-1, > 100 µM (inactive); in the test with K562, > 100 µM (inactive); in the test on M14 it was > 100 µM (inactive); with MDA-MB-231, > 100 µM (inactive). The GI50 in the test on NCI/ADR-RES, in the test with OVCAR-4, in the test on OVCAR-8, with RXF 393, in the test on SF-268 and with SK-MEL-5 was > 100 µM (inactive) throughout. Further, the GI50 with SK-OV-3 and with UACC-62 was > 100 µM (inactive) throughout.

`O=C1c2ccccc2C(=O)c2c(NC(=O)C(Cl)CCl)cccc21` (stereo not given): the GI50 in the test on 786-0 is 2.87 µM (inactive); in the test on A549 it was 20.4 µM (inactive); in the test on ACHN it was 13.8 µM (inactive); in the test with CAKI-1, 16.3 µM (inactive); in the test on HCC 2998, 13.6 µM (inactive); in the test with HCT-116 it was 10.9 µM (inactive). Besides, the GI50 with HCT-15 is 6.65 µM; in the test with HL-60, 0.361 µM (active); in the test on IGROV-1, 5.02 µM (inactive); with K562, 0.197 µM (active); with M14, 6.28 µM (inactive); in the test on MDA-MB-231, 6.53 µM (inactive). For the same molecule, the GI50 in the test with NCI/ADR-RES is 23.1 µM (inactive); in the test with OVCAR-4 it was 10.7 µM (inactive); in the test on OVCAR-8 it was 5.56 µM (inactive); in the test with RXF 393 it was 6.64 µM (inactive); in the test with SF-268 it was 5.7 µM (inactive); with SK-MEL-5, 9.66 µM (inactive). Besides, the results for the GI50 in the test on SK-OV-3 and in the test with UACC-62 were 19 µM (inactive) and 10.1 µM (inactive), respectively.

With `Cn1c2ccccc2c(=NNc2ccc(S(N)(=O)=O)cc2)c2ccccc21`, the GI50 in the test with 786-0 was 21 µM (inactive); in the test on A549, 11.7 µM (inactive); in the test on ACHN, 8.05 µM (inactive); in the test on CAKI-1, 15.7 µM (inactive); with HCC 2998 it was 14.9 µM (inactive); with HCT-116, 16.7 µM (inactive). Also, the GI50 in the test with HCT-15 is 16.2 µM; in the test with HL-60 it was 2.7 µM (inactive); with IGROV-1 it was 17.7 µM (inactive); in the test with K562, 2.49 µM (inactive); in the test with M14, 24 µM (inactive); in the test on MDA-MB-231 it was 9.23 µM (inactive). Besides, the GI50 is 14.1 µM (inactive) in the test with NCI/ADR-RES; 14.3 µM (inactive) in the test with OVCAR-4; 16.2 µM (inactive) in the test with OVCAR-8; 16.2 µM (inactive) in the test with RXF 393; 18.1 µM (inactive) with SF-268; 8.24 µM (inactive) in the test on SK-MEL-5. In addition, the GI50 with SK-OV-3 is 20.2 µM (inactive); in the test with UACC-62, 14.7 µM (inactive).

Consider `COc1cc(O)c2c(=O)c3cccc(C)c3[nH]c2c1`, for which the GI50 in the test with 786-0 is > 10 µM (inactive); in the test on A549, > 10 µM (inactive); with ACHN, 7.41 µM (inactive); in the test with CAKI-1, > 10 µM (inactive); in the test with HCC 2998, > 10 µM (inactive); with HCT-116 it was > 10 µM (inactive). Besides, the GI50 was greater than 10 µM with HCT-15; > 10 µM (inactive) in the test with HL-60; > 10 µM (inactive) in the test on IGROV-1; > 10 µM (inactive) in the test on K562; > 10 µM (inactive) in the test on M14; > 10 µM (inactive) in the test with MDA-MB-231. In addition, the GI50 was > 10 µM (inactive) in the test with NCI/ADR-RES; 6.4 µM (inactive) in the test with OVCAR-4; > 10 µM (inactive) in the test on OVCAR-8; > 10 µM (inactive) with RXF 393; > 10 µM (inactive) in the test on SF-268; > 10 µM (inactive) with SK-MEL-5. Also, the GI50 in the test on SK-OV-3 and with UACC-62 was > 10 µM (inactive) each time.

Consider `c1ccc2c(c1)[C@@H]1O[C@@H]1[C@@]13O[C@@]21[C@H]1O[C@H]1c1ccccc13`, for which the GI50 was 15.2 µM (inactive) in the test with 786-0; 15.7 µM (inactive) with A549; 12.9 µM (inactive) with ACHN; 10.8 µM (inactive) with CAKI-1; 16.6 µM (inactive) with HCC 2998; 12.1 µM (inactive) with HCT-116. Further, the GI50 with HCT-15 is 19.5 µM; in the test on HL-60, 13.3 µM (inactive); with IGROV-1, 12.2 µM (inactive); with K562 it was 13.6 µM (inactive); in the test on M14, 15.6 µM (inactive); with MDA-MB-231, 15.8 µM (inactive). Also, the GI50 is 16.3 µM (inactive) with NCI/ADR-RES; 11.9 µM (inactive) in the test with OVCAR-4; 15.6 µM (inactive) in the test on OVCAR-8; 12.6 µM (inactive) in the test on RXF 393; 13.7 µM (inactive) in the test with SF-268; 12.9 µM (inactive) in the test with SK-MEL-5. Moreover, the GI50 in the test with SK-OV-3 is 21.5 µM (inactive); in the test with UACC-62, 12.2 µM (inactive).

For the molecule `CCN(C(=O)/C=C/c1ccco1)c1ccccc1`, the GI50 in the test with 786-0, in the test on A549, in the test with ACHN, in the test on CAKI-1, in the test on HCC 2998 and in the test with HCT-116 was > 100 µM (inactive) each time. For the same molecule, the GI50 in the test with HCT-15 was greater than 100 µM; in the test with HL-60, 21.9 µM (inactive); with IGROV-1, > 100 µM (inactive); with K562, 46.2 µM (inactive); with M14, > 100 µM (inactive); in the test with MDA-MB-231 it was > 100 µM (inactive). The GI50 with NCI/ADR-RES, with OVCAR-4, in the test with OVCAR-8, in the test with RXF 393, in the test on SF-268 and with SK-MEL-5 was > 100 µM (inactive) in each case. Also, the GI50 in the test with SK-OV-3 and in the test with UACC-62 was > 100 µM (inactive) throughout.

For the molecule `N#CCc1nc(-c2cc3c(ccc4ccccc43)oc2=O)cs1`, the GI50 with 786-0 is 22.2 µM (inactive); in the test with A549 it was 50 µM (inactive); in the test with ACHN it was 27.5 µM (inactive); in the test on CAKI-1 it was 50.1 µM (inactive); in the test on HCC 2998, 69.3 µM (inactive); in the test with HCT-116, 54.3 µM (inactive). Moreover, the GI50 in the test on HCT-15 is 69.3 µM; in the test with HL-60 it was > 100 µM (inactive); in the test with IGROV-1, 15.2 µM (inactive); with K562, > 100 µM (inactive); in the test on M14, 99.1 µM (inactive); in the test on MDA-MB-231, 17.9 µM (inactive). For the same molecule, the GI50 with NCI/ADR-RES is 23 µM (inactive); in the test with OVCAR-4, 24.3 µM (inactive); in the test with OVCAR-8, 28.5 µM (inactive); in the test on RXF 393, 23.4 µM (inactive); with SF-268 it was 31.6 µM (inactive); with SK-MEL-5, 69.3 µM (inactive). In addition, the results for the GI50 in the test with SK-OV-3 and in the test with UACC-62 were 30.3 µM (inactive) and 21.7 µM (inactive), respectively.

As for `c1ccc(/N=C2\c3ccsc3/C(=N/c3ccccc3)c3ccsc32)cc1`, the GI50 in the test on 786-0 was 2.75 µM (inactive); in the test with A549, 2.03 µM (inactive); with ACHN it was 1.71 µM (inactive); in the test on CAKI-1 it was 4.49 µM (inactive); in the test with HCC 2998, 3.94 µM (inactive); with HCT-116 it was 1.93 µM (inactive). For the same molecule, the GI50 with HCT-15 was 2.04 µM; in the test with HL-60, 1.61 µM (inactive); with IGROV-1 it was 1.92 µM (inactive); in the test with K562, 1.83 µM (inactive); in the test with M14, 1.34 µM (inactive); with MDA-MB-231, 1.77 µM (inactive). The GI50 in the test with NCI/ADR-RES was 1.98 µM (inactive); in the test with OVCAR-4 it was 1.77 µM (inactive); with OVCAR-8, 2.11 µM (inactive); with RXF 393, 1.77 µM (inactive); in the test with SF-268, 2.4 µM (inactive); in the test with SK-MEL-5 it was 1.09 µM (active). The GI50 is 6.59 µM (inactive) in the test with SK-OV-3 and 1.84 µM (inactive) in the test with UACC-62.
